Reference: a melting point compilation (Tetko et al.; mined from patent text by program, amines drawn as free bases though some values may be those of a salt)

| Compound | melting point [°C] |
| --- | --- |
| CCN1CCN(c2ccnc3c(NC(=O)c4c(Cl)cccc4Cl)ccc(C)c23)C1=O | 235 to 236 |
| CC1(C(=O)c2c[nH]c3ncc(Br)nc23)CCCCC1 | 198 to 199 |
| CC(=O)c1coc(S(N)(=O)=O)c1 | 135 to 136 |
| CCC12CCC3=C(CCc4cc(O)ccc43)C1CCC2O (stereo not given) | 234 to 238 |
| CC(C)[C@H](NC(=O)OC(C)(C)C)[C@H](O)C(F)(F)F | 87 to 88 |
| O=C(NCC(F)(F)F)c1ccc(C(F)(F)F)cc1 | 117 |
| O=C(c1cccc(-c2cc3ccccc3n2S(=O)(=O)c2ccccc2)c1)c1cc2ccccc2n1S(=O)(=O)c1ccccc1 | 189 to 190 |
| CCOC(=O)c1cn(Cc2ccc(OCc3nc(-c4ccccc4)oc3C)cc2)nc1-c1cccs1 | 113 to 114 |
| C[C@H](c1ccccc1)n1c(=O)c2c(N3CCN(C)CC3)cc(Cl)cc2n(Cc2ccccc2)c1=O | 108 to 115 |
| CCNC(=O)NCCSCC(=O)NC/C=C\COc1cccc(CN2CCCCC2)c1 | 90.2 to 91.2 |
| CCC(=O)c1[nH]c(=O)[nH]c1CC | 212 to 213 |
| CC(=O)NC[C@H]1CN(c2ccc(C(=O)c3cnc4c(OCc5ccccc5)cccn34)cc2)C(=O)O1 | 193 to 195 |
| CC(=O)OC1CSC(Oc2cccc(-c3nccs3)c2)C(OC(C)=O)C1OC(C)=O (stereo not given) | 65 |
| O=C(O)CC1CCC(N2CCN(CCNc3ccncc3)CC2)CC1 (stereo not given) | 220 |
| Cc1nnc(-c2cc(Cl)c(Cl)c(Cl)n2)s1 | 148 to 150 |
| Cc1cnn(-c2ccc(C(=O)N3Cc4cccn4Cc4ccccc43)cc2)c1 | 179 to 181 |
| CN(c1ccc(O)cc1)c1nc2ccc(Br)cc2o1 | 195 |
| NC(=O)c1ccc(OCc2ccccc2)cc1CCN1CCNCC1 | 116 to 118 |
| CC1(C)CCc2c(N3CCOCC3)nc3sc4c(NCc5ccncc5)ncnc4c3c2C1 | 240 to 241 |
| COc1ccc(-c2nc3cc(Cl)c(Cl)cc3n2C(=O)OCc2ccccc2)cc1[N+](=O)[O-] | 212 to 214 |
| O=C1c2ccccc2-c2c1c1ccccc1c(=O)n2CCCCCCCNS(=O)(=O)c1ccc(Br)cc1 | 160 to 161 |
| O=[N+]([O-])c1ccc(SCCn2cnnc2)cc1 | 162 to 165 |
| CC(C)(C)C(=O)c1c[nH]c2ncc(-c3cccc(NC4=NCCN4)c3)nc12 | 228 to 230 |
| Cc1cc(-c2ccc(C(F)(F)F)cc2)cc(-c2ccnc(-c3cccc(NS(C)(=O)=O)c3)c2)n1 | 196 |
| C/C=C\Cn1c(C(=O)c2cc(C)cc(C)c2)c(CC)c(=O)[nH]c1=O | 199 to 200 |
| CCCn1c(CCOC)nc2c(N)nc3cc(Oc4ccc(S(C)(=O)=O)cc4)ccc3c21 | 210 to 212 |
| CN(C(=O)Cc1ccc([N+](=O)[O-])cc1)C1c2ccccc2CCC1N1CCCC1 (stereo not given) | 135 |
| N#CCCCCCCCCCCCCC#N | < 40 |

| Compound | melting point [°C] |
| --- | --- |
| Cc1ccn(-c2ccc(C(=O)C3c4ccccc4NC=C4N=NNN43)c(Cl)c2)n1 (stereo not given) | 110 to 114 |
| CC(C)(C)OC(=O)C(F)=CC1C(C(=O)OC(C#N)c2cccc(Oc3ccccc3)c2)C1(C)C (stereo not given) | 103 |
| CCC(C)n1cc(Cl)nc(N2CCc3cc(Br)cc(Cl)c32)c1=O (stereo not given) | 150 |
| CCCc1c(C(=O)C(C)C)c2ccc(C(=O)O)cc2n1Cc1ccc(Br)cc1F | 210 to 211 |
| CN(Cc1ccc2c(Br)c(OC(Cc3ccccc3)C(=O)O)ccc2c1)C(=O)c1oc2ccccc2c1CCc1ccccc1 (stereo not given) | 87 to 90 |
| O=C(O)COCC(=O)N1CCC(C(c2ccccc2)c2ccccc2)CC1 | 140 to 141 |
| CCc1nc2c(N)nc3cc(-c4ccncc4)ccc3c2n1CC(C)(C)O | > 250 |
| CC(C)(C)OC(=O)Nc1ccc(C#Cc2ccc(F)cc2)cc1NC(=O)CC(=O)c1cccc(-n2cncn2)c1 | 131 to 139 |
| CC(C)c1nc(CCOCc2ccccc2)n(CCO)c1Sc1cc(Cl)cc(Cl)c1 | 129 to 130 |
| COc1nc(OC)c(I)c(C(=O)O)n1 | 125 to 126 |
| COC(=O)/C=C/c1ccc2nn(C)c(C)c2c1C(=O)OC | 133 to 135 |
| CN(C(=O)NC(=O)c1ccccc1)C(=O)Nc1nc(C(Cl)(Cl)Cl)ns1 | 70 |
| CCc1cc(C(F)(C(F)(F)F)C(F)(F)C(F)(F)F)cc(C)c1NC(=O)c1cccc(NC(=O)c2ccc(C#N)cc2C)c1OC (stereo not given) | 104 to 105 |
| CON(C(=O)c1cccnc1Cl)C1CCCCC1 | 96 to 98 |
| CN1C(=O)CC[C@]2(C)c3ccc(-c4c5ccccc5cc5ccccc45)cc3CC[C@@H]12 | 95 to 110 |
| ClCCN(CCCl)CCOc1cccc(Nc2c3ccccc3nc3c(OCCN(CCCl)CCCl)cccc23)c1 | 108 to 109 |
| O=C(CCOCc1ccc2ccccc2c1)c1ccccc1 | 56 to 57 |
| CCOC(=O)CCCCCCCn1cnc(-c2ccc(O)cc2)c1-c1ccc(O)cc1 | 186 to 187 |
| Nc1ncnc2c1ncn2OCCCCP(=O)(O)O | 265 to 268 |
| Cc1nc2cc(OC3SCC(O)C(O)C3O)ccc2s1 (stereo not given) | 210 to 211 |
| S=[PH2]CCC(c1ccccc1)(c1ccccc1)c1ccccc1 | 88 |
| CCCCCCCNC(=O)Nc1ccc(N(C)C)cc1C(=O)NCC1CCN(C(c2ccc(Cl)cc2)c2ccc(Cl)cc2)CC1 | 216 |
| COc1cc(OC)c(F)c(NCc2cnc(SC)nc2NC2CC2)c1F | 48 to 50 |
| O=C(O)c1cc(S)cc(C(=O)O)c1 | 240 to 246 |
| CC(C)OC(=O)C=C1CN=C(c2ccccc2F)c2cc(Cl)ccc2N1 | 144 to 145 |
| O=C(NCCCC[C@H](O)C(=O)O)OCc1ccccc1 | 79 to 81 |
| CC(C)(C)CNS(=O)(=O)c1cccc(NC(=O)c2cnn3c(C(F)F)cc(-c4ccc(C(F)(F)F)cc4)nc23)c1 | 208 |

The next lines start with the values.

| melting point [°C] | Compound |
| --- | --- |
| 240 | N#CC(=Cc1ccc(O)c(O)c1)C(=O)O |
| 240 to 242 | Cc1cc2c(cc1Cl)C=C(C(=O)O)C(C(F)(F)F)S2 (stereo not given) |
| 30 to 31 | CC(C)OC(=O)CCc1nc(-c2ccc(Cl)cc2)co1 |
| 99 to 100 | Nc1cc(C=O)nc(CC2CC2)c1F |
| 198 to 201 | Nc1c([N+](=O)[O-])sc2ccc(C(F)(F)F)cc12 |
| 69 to 71 | O=[N+]([O-])c1ccccc1N1CCCc2ccccc21 |
| 51 | O=C(CBr)CCc1ccc(Cl)cc1 |
| 90.5 to 91.5 | CC(C(=O)N(C)C)n1cc(Br)c(-c2ccccc2)n1 (stereo not given) |
| 184 to 186 | Fc1ccc(C2CC(n3cncn3)c3ccccc3N2)cc1 (stereo not given) |
| 127 to 129 | NCCNC(=O)CC(CO)c1c(Cl)cccc1Cl (stereo not given) |
| 132 to 133 | CCOC(=O)Cc1c(-c2ccccc2)c2cc(C)c(Cl)cc2oc1=O |
| 173 to 175 | CCN1C(=O)C(C(=O)Nc2cccc(C(=O)Nc3ccccc3)c2)c2cc(C(C)=O)ccc21 (stereo not given) |
| 160 to 161 | CN(C)C(=N)Nc1ccc(F)cc1-c1ccccc1 |
| 132 | CCCCOc1ccc(-n2cc(C(=O)OCC)cn2)cc1C#N |
| 191 to 193 | N#Cc1ccc(-c2ccc(C(=O)CCC(=O)O)cc2)cc1 |
| 92 to 96 | CC(=O)Nc1cccc2c(-c3ccc(=O)n(C(C)C)n3)c(-c3ccccc3)nn12 |
| 209 to 210 | O=c1ccc(S(=O)(=O)c2cc3ccccc3s2)n[nH]1 |
| 121 | O=S(=O)(c1ccc(F)cc1)N1CCCC1c1ccc(F)cc1 (racemic) |
| 186 to 187 | CSc1nn(-c2c(Cl)cc(Cl)cc2Cl)c(N(C)C)c1CC1C(=O)NC(=O)c2ccccc21 (stereo not given) |
| 198 to 200 | CC(=O)OCC1Cc2cccc3c(C4=C(c5cn(C)c6ccccc56)C(=O)OC4=O)cn(c23)C1 (stereo not given) |
| 168 to 170 | C[C@H]1C(=O)Nc2ccc(Cl)cc2N1C(=O)Oc1ccc(F)cc1 |
| 230 to 240 | COc1cc2c(cc1OCc1ccccc1)CC(C(=O)O)NC2 (racemic) |
| 171 | CCOC(=O)c1nc(-c2ccccc2)[nH]c1N=NN(C)C |

| melting point [°C] | Compound |
| --- | --- |
| 284 to 285 | CN1C(C(=O)Nc2ccc(F)cc2)=C(O)c2ccc3ccccc3c2S1(=O)=O |
| 118 to 121 | N#Cc1cccc2c1C(=O)C(OCc1ccccc1)=C(OCc1ccccc1)C2=O |
| 276 | O=C1CC=Nc2cc3c(cc21)OCO3 |
| 147 to 149 | Clc1ccc2nc(Cl)c(-c3ccccc3)cc2c1 |
| 116 to 118 | CCC(CC)n1c(=O)ccc2cnc(Nc3ccccc3)nc21 |
| > 200 | N=C(N)c1ccc(N2CCN(C3CCC(CCC(=O)O)CC3)C2=O)cc1 (stereo not given) |
| 189 to 190 | NS(=O)(=O)c1cc(C(=O)NNc2ccccc2)ccc1Cl |
| 102 to 103 | CCN(c1ccc(C#N)cc1[N+](=O)[O-])S(=O)(=O)c1ccc(Cl)s1 |
| 65.9 | C=Cc1ccc(C=O)cc1 |
| 119 to 120 | CN(C)C(=O)c1cccc(C(C(N)=O)c2cccc(Br)c2)c1 (stereo not given) |
| 98 to 101 | COc1ccc2c(c1)CCC(c1ccccc1)=C2c1ccccc1 |
| 177 to 179 | Nc1n[nH]cc1C(=O)c1ccccc1 |
| 56.2 to 57.8 | COC(=O)c1cc(C)cc(CC#N)c1 |
| 149 to 150 | c1coc(-c2ccc(-c3ccco3)cc2)c1 |
| 198 | O=C(Nc1nc(C(Cl)(Cl)Cl)ns1)c1cccc([N+](=O)[O-])c1 |
| 93 to 96 | N#CC1OC(=O)c2cccc(F)c21 (stereo not given) |
| 252 | CCC(O)C#Cc1ccc2c(=O)c(-c3ncc[nH]3)c(N)n(CC3CC3)c2n1 (stereo not given) |
| 106 to 107 | CC(=O)C(Cc1cccc(Br)c1)NC(=O)c1ccc(C)cc1 (stereo not given) |
| 64 to 66 | CCCCc1nc2ccccn2c(=O)c1-c1ccc(N[C@@H]2CCN(C)C2)cc1 |
| 209 to 210 | O=P1(c2cccc(F)c2)c2ccccc2CN1c1ccccc1 (stereo not given) |
| 133 to 134 | O=C(O)c1cccc(OCCCc2cc(-c3ccc(C(F)(F)F)cc3)no2)c1 |
| 133 to 134 | COc1cc(NC(=O)NC(=O)c2c(F)cccc2F)ccc1OC(F)(F)C(F)(F)c1ccc(Cl)cc1 |
